The source made the active and inactive calls. The calls are words filed in the database; no cut-off is given here.

The test system of one data set is Enterococcus faecalis. Briefly: Antibacterial activity against Enterococcus faecalis ATCC 29212 incubated for 18 hrs by microdilution method. Format: functional, organism-based. A general note: Broth dilution looks for growth in wells or tubes with falling amounts of substance.
Regarding `C=CC(C)(C)c1[nH]c2ccccc2c1CCNC(=O)CC[C@H](N)C(=O)O`, the outcome was inactive.

In the case of `C=CC(C)(C)C(=O)Nc1ccccc1C(=O)CCNC(=O)CC[C@H](N)C(=O)O`, the result was inactive.

Regarding `C=CC(C)(C)c1[nH]c2ccccc2c1CCNC(=O)CC[C@H](O)C(=O)O`, the outcome was inactive.

In the case of `C=CC(C)(C)[C@H]1Nc2ccccc2C(=O)[C@@H]1CNC(=O)CC[C@H](N)C(=O)O`, the outcome was inactive.

For `C=CC(C)(C)[C@@]1(CCNC(=O)CC[C@H](N)C(=O)O)C(=O)Nc2ccccc21`, the result was inactive.

Regarding `C=CC(C)(C)c1[nH]c2ccccc2c(=O)c1CNC(=O)CC[C@H](N)C(=O)O`, the result was inactive.

The subject of the next data set is Pseudomonas aeruginosa. Briefly: Antibacterial activity against Pseudomonas aeruginosa ATCC 27853 incubated for 18 hrs by microdilution method. It is filed as functional, organism-based.
As for `C=CC(C)(C)c1[nH]c2ccccc2c1CCNC(=O)CC[C@H](N)C(=O)O`, the result was inactive.

Regarding `C=CC(C)(C)C(=O)Nc1ccccc1C(=O)CCNC(=O)CC[C@H](N)C(=O)O`, the outcome was inactive.

`C=CC(C)(C)c1[nH]c2ccccc2c1CCNC(=O)CC[C@H](O)C(=O)O`: the result was inactive.

In the case of `C=CC(C)(C)[C@H]1Nc2ccccc2C(=O)[C@@H]1CNC(=O)CC[C@H](N)C(=O)O`, the result was inactive.

On to `C=CC(C)(C)[C@@]1(CCNC(=O)CC[C@H](N)C(=O)O)C(=O)Nc2ccccc21`, for which the outcome was inactive.

In the case of `C=CC(C)(C)c1[nH]c2ccccc2c(=O)c1CNC(=O)CC[C@H](N)C(=O)O`, the outcome was inactive.

The subject of a further data set is Staphylococcus aureus. The data set is described as follows: Antibacterial activity against Staphylococcus aureus ATCC 29213 incubated for 18 hrs by microdilution method. Format: functional, organism-based.
For `C=CC(C)(C)c1[nH]c2ccccc2c1CCNC(=O)CC[C@H](N)C(=O)O`, the outcome was inactive.

Consider `C=CC(C)(C)C(=O)Nc1ccccc1C(=O)CCNC(=O)CC[C@H](N)C(=O)O`, for which the outcome was inactive.

In the case of `C=CC(C)(C)c1[nH]c2ccccc2c1CCNC(=O)CC[C@H](O)C(=O)O`, the outcome was inactive.

Take `C=CC(C)(C)[C@H]1Nc2ccccc2C(=O)[C@@H]1CNC(=O)CC[C@H](N)C(=O)O`: the outcome was inactive.

For the compound `C=CC(C)(C)[C@@]1(CCNC(=O)CC[C@H](N)C(=O)O)C(=O)Nc2ccccc21`, the result was inactive.

As for `C=CC(C)(C)c1[nH]c2ccccc2c(=O)c1CNC(=O)CC[C@H](N)C(=O)O`, the outcome was inactive.

For another data set, the system named is Klebsiella pneumoniae. Briefly: Antibacterial activity against Klebsiella pneumoniae ATCC 700603 incubated for 18 hrs by microdilution method. Format: functional, organism-based.
As for `C=CC(C)(C)c1[nH]c2ccccc2c1CCNC(=O)CC[C@H](N)C(=O)O`, the result was inactive.

For the compound `C=CC(C)(C)C(=O)Nc1ccccc1C(=O)CCNC(=O)CC[C@H](N)C(=O)O`, the outcome was inactive.

Turning to `C=CC(C)(C)c1[nH]c2ccccc2c1CCNC(=O)CC[C@H](O)C(=O)O`, the result was inactive.

Regarding `C=CC(C)(C)[C@H]1Nc2ccccc2C(=O)[C@@H]1CNC(=O)CC[C@H](N)C(=O)O`, the outcome was inactive.

For `C=CC(C)(C)[C@@]1(CCNC(=O)CC[C@H](N)C(=O)O)C(=O)Nc2ccccc21`, the result was inactive.

Take `C=CC(C)(C)c1[nH]c2ccccc2c(=O)c1CNC(=O)CC[C@H](N)C(=O)O`: the outcome was inactive.

The subject of the next data set is MCF7. The data set is described as follows: Cytotoxicity against human MCF7 cells after 24 hrs by tetrazolium dye based assay. Format: functional, cell-based.
`C=CC(C)(C)c1[nH]c2ccccc2c1CCNC(=O)CC[C@H](N)C(=O)O`: the outcome was inactive.

For `C=CC(C)(C)C(=O)Nc1ccccc1C(=O)CCNC(=O)CC[C@H](N)C(=O)O`, the outcome was inactive.

As to `C=CC(C)(C)c1[nH]c2ccccc2c1CCNC(=O)CC[C@H](O)C(=O)O`, the result was inactive.

On to `C=CC(C)(C)[C@H]1Nc2ccccc2C(=O)[C@@H]1CNC(=O)CC[C@H](N)C(=O)O`, for which the outcome was inactive.

`C=CC(C)(C)[C@@]1(CCNC(=O)CC[C@H](N)C(=O)O)C(=O)Nc2ccccc21`: the result was inactive.

For the compound `C=CC(C)(C)c1[nH]c2ccccc2c(=O)c1CNC(=O)CC[C@H](N)C(=O)O`, the outcome was inactive.

For another data set, the system named is A549. The data set is described as follows: Cytotoxicity against human A549 cells after 24 hrs by tetrazolium dye based assay. It is filed as functional, cell-based.
`C=CC(C)(C)c1[nH]c2ccccc2c1CCNC(=O)CC[C@H](N)C(=O)O`: the result was inactive.

For `C=CC(C)(C)C(=O)Nc1ccccc1C(=O)CCNC(=O)CC[C@H](N)C(=O)O`, the result was inactive.

In the case of `C=CC(C)(C)c1[nH]c2ccccc2c1CCNC(=O)CC[C@H](O)C(=O)O`, the result was inactive.

Regarding `C=CC(C)(C)[C@H]1Nc2ccccc2C(=O)[C@@H]1CNC(=O)CC[C@H](N)C(=O)O`, the outcome was inactive.

Consider `C=CC(C)(C)[C@@]1(CCNC(=O)CC[C@H](N)C(=O)O)C(=O)Nc2ccccc21`, for which the result was inactive.

For `C=CC(C)(C)c1[nH]c2ccccc2c(=O)c1CNC(=O)CC[C@H](N)C(=O)O`, the outcome was inactive.

Another data set concerns HeLa. Briefly: Cytotoxicity against human HeLa cells after 24 hrs by tetrazolium dye based assay. Format: functional, cell-based.
`C=CC(C)(C)c1[nH]c2ccccc2c1CCNC(=O)CC[C@H](N)C(=O)O`: the result was inactive.

For `C=CC(C)(C)C(=O)Nc1ccccc1C(=O)CCNC(=O)CC[C@H](N)C(=O)O`, the result was inactive.

Turning to `C=CC(C)(C)c1[nH]c2ccccc2c1CCNC(=O)CC[C@H](O)C(=O)O`, the result was inactive.

Turning to `C=CC(C)(C)[C@H]1Nc2ccccc2C(=O)[C@@H]1CNC(=O)CC[C@H](N)C(=O)O`, the result was inactive.

For `C=CC(C)(C)[C@@]1(CCNC(=O)CC[C@H](N)C(=O)O)C(=O)Nc2ccccc21`, the result was inactive.

As for `C=CC(C)(C)c1[nH]c2ccccc2c(=O)c1CNC(=O)CC[C@H](N)C(=O)O`, the outcome was inactive.

The next data set relates to MCF-10A. Briefly: Cytotoxicity against human MCF10A cells after 24 hrs by tetrazolium dye based assay. It is filed as cell-based.
`C=CC(C)(C)c1[nH]c2ccccc2c1CCNC(=O)CC[C@H](N)C(=O)O`: the Activity entry is given as “Non-Toxic”.

Regarding `C=CC(C)(C)C(=O)Nc1ccccc1C(=O)CCNC(=O)CC[C@H](N)C(=O)O`, the Activity result is on record as “Non-Toxic”.

With `C=CC(C)(C)c1[nH]c2ccccc2c1CCNC(=O)CC[C@H](O)C(=O)O`, the Activity entry was “Non-Toxic”.

Regarding `C=CC(C)(C)[C@H]1Nc2ccccc2C(=O)[C@@H]1CNC(=O)CC[C@H](N)C(=O)O`, the Activity result is on record as “Non-Toxic”.

On to `C=CC(C)(C)[C@@]1(CCNC(=O)CC[C@H](N)C(=O)O)C(=O)Nc2ccccc21`, for which the Activity entry is given as “Non-Toxic”.

In the case of `C=CC(C)(C)c1[nH]c2ccccc2c(=O)c1CNC(=O)CC[C@H](N)C(=O)O`, the Activity entry is reported as “Non-Toxic”.

For the next data set, the species on record is Homo sapiens. The data set is described as follows: Cytotoxicity against human ACP01 cells after 24 hrs by tetrazolium dye based assay. It is filed as functional, cell-based.
In the case of `C=CC(C)(C)c1[nH]c2ccccc2c1CCNC(=O)CC[C@H](N)C(=O)O`, the outcome was inactive.

In the case of `C=CC(C)(C)C(=O)Nc1ccccc1C(=O)CCNC(=O)CC[C@H](N)C(=O)O`, the outcome was inactive.

On to `C=CC(C)(C)c1[nH]c2ccccc2c1CCNC(=O)CC[C@H](O)C(=O)O`, for which the result was inactive.

For the compound `C=CC(C)(C)[C@H]1Nc2ccccc2C(=O)[C@@H]1CNC(=O)CC[C@H](N)C(=O)O`, the result was inactive.

For the compound `C=CC(C)(C)[C@@]1(CCNC(=O)CC[C@H](N)C(=O)O)C(=O)Nc2ccccc21`, the result was inactive.

Consider `C=CC(C)(C)c1[nH]c2ccccc2c(=O)c1CNC(=O)CC[C@H](N)C(=O)O`, for which the outcome was inactive.

Values taken from ChEMBL document CHEMBL4342452, “Water-Soluble Glutamic Acid Derivatives Produced in Culture by Penicillium solitum IS1-A from King George Island, Maritime Antarctica” (J Nat Prod, 2020).
